Assay [1] is described as follows: Superoxide assay (dihydroethidium fluorometric). The format is biochemical. The procedure:
Superoxide Assay—The fluorometric assay for superoxide is based upon the dihydroethidium (DHE, HYDROETHDNE™) method (Molecular Probes, Eugene, Oreg.) and used according to the manufacturer's instructions. DHE (1 mM) was freshly prepared in 100% argon-sparged DMSO. The reaction solutions were carried out in PBS, pH 7.4, under ambient gas conditions, in 96-well format plates and contained a test compound (KYN, 3-HK, 3-HAA, and ANA, each at 10 μM), DHE (100 μM), +/− Cu(II)-glycine (1 μM) and incubated at 37EC for 60 minutes. […] Abolition of the reading by co-incubation with superoxide dismutase (1000 U/ml) was used for establishing superoxide specificity. The fluorescent readings were recorded by a Packard FLUOROCOUNT™ fluorescent plate reader with a 510 nm excitation filter and 590 nm emission filter. Potassium superoxide dissolved in degassed DMSO was used as a positive control.

A short description of assay [2]: Cyclic voltammetry of kynurenine metabolites with Cu(II). The format is physicochemical. Conditions: metabolite 100 μM, cupric chloride 25 μM, PBS pH 7.4. Here is the method: Cyclic Voltammetry—Cyclic voltammetry was performed at room temperature (22±2° C.) on ambient solutions using an EG&G PAR potentiostat, Model 273. The potentiostat was operated in Ramp Mode, generating a potential staircase waveform with a 0.25 mV step height. The potential window of +0.15 to −0.4V, in which Cu(I) is electroactive, but the metabolites are not, was scanned in both directions at a rate of 100 mV/sec. The current response was passed through a 5.3 Hz low pass filter. A minimum of three cycles were collected for each scan, ensuring the stability of the electrochemical response. The electrochemical cell consisted of an indium/tin oxide working electrode (Delta Technologies) with an active area of 0.32 cm^2, a platinum wire auxiliary electrode, and a Ag/AgCl (1 M KCl) reference electrode (Microelectrodes Inc.). Both the auxiliary and reference electrodes were positioned in the cell in close proximity to the working electrode. The working electrodes were pretreated with successive 10 minute sonications in Alconox (˜8 g/L), 95% ethanol, Milli-Q purified H2O (2×), and PBS (pH 7.4), followed by an overnight soak in PBS (pH 7.4). The ITO electrodes were subsequently “activated” immediately prior to use by successive cycling in PBS for three cycles in each of the following potential windows: +0.15 ? −0.4 V, +0.4 ? −0.4 V, and +1.0 ? −0.4 V. Cupric chloride (25 μM; Allied Chemical) was used as the Cu(II) source. Background voltammograms were obtained on each new electrode before testing the kynurenine pathway metabolites. PBS solutions of KYN, 3-HK, ANA, and 3-HAA (each at 100 μM) were separately scanned with and without added Cu(II) (25 μM). Each experiment also included a scan of Cu(II) (25 μM) in PBS without added test compound. All solutions were tested within minutes of being prepared. Each test was repeated to ensure the reproducibility of the results.
The voltammograms in FIGS. 3A–3D compare 3-HK and 3-HAA to their corresponding non-phenolic analogs, kynurenine (KYN) and anthranilic acid (ANA), in aqueous solutions of Cu(II) at pH 7.4. […] At potentials above +0.15 V, the metabolites undergo direct irreversible oxidation, a reaction that is not considered further here. Cyclic voltammetry of Cu(II) in PBS yielded a current response at ≈−100 mV due to reduction of the metal ion (scan “b” in each panel).

Assay [3] can be described thus: Hydrogen peroxide assay (DCF fluorometric). It counts as biochemical. Here is the method: Hydrogen Peroxide Assay—The fluorometric assay for hydrogen peroxide is based on the dichlorofluorescein diacetate (DCF) method (Molecular Probes, Eugene, Oreg.). The DCF solution (5 mM) in 100% ethanol was deacetylated in the presence of 0.01 M NaOH for 30 minutes and neutralized. Horseradish peroxidase (200 U/ml) was then added and the DCF concentration adjusted to 200 μM in PBS. The reaction solutions were carried out in PBS, pH 7.4, in a 96-well format plate (total volume=300 μL/well) and contained a test compound (KYN, 3-HK, 3-HAA, ANA, or ASC, each at 10 μM), deacetylated DCF (20 μM), and Cu(II)-glycine (1 μM) as indicated, incubated at 37° C. for 60 minutes. […] Abolition of the reading by co-incubation with catalase (1000 U/ml) was used for establishing H2O2 specificity. The fluorescent readings were recorded by a Packard FLURORCOUNT™ fluorescent plate reader with a 485 nm excitation filter and 530 nm emission filter. Concentrations were determined by comparison to a standard curve using reagent grade hydrogen peroxide in CHELEX™ chelating ion exchanae resin-treated PBS buffer, pH 7.4.
Reactions were conducted in the absence of added Cu(II), in the presence of added glycine-complexed Cu(II) (1 μM), in the presence of added glycine-complexed Cu(II) (1 μM) and catalase (1000 U/ml), or with added glycine-complexed Cu(II) (1 μM) and the copper chelator triethylenetetramine (TETA, 200 μM).

Assay [4] addresses T1, recombinant human αB-crystallin (Homo sapiens, UniProt P02511).
T1 construct: gift of Dr. J. Liang, Brigham and Women's Hospital
T1 sequence (P02511 1-175): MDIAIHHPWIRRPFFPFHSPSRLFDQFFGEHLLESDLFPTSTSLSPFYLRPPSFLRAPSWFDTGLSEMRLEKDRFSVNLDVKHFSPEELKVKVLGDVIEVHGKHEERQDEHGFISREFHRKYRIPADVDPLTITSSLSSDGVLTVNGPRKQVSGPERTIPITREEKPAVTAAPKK
Kind of assay: Recombinant human αB-crystallin cross-linking (SDS-PAGE, silver stain). The format is biochemical. Conditions: data not shown. The procedure: Various solutions containing 3-HK (10 μM) or other kynurenine pathway metabolites (10 μM), Cu(II)-glycine (10 μM), Fe(III)-citrate (10 μM), and triethylenetetramine (TETA, 200 μM), were added in combinations as indicated. […] After incubation, aliquots of the total lens protein solutions were mixed with sample buffer containing 4% SDS and 5% β-mercaptoethanol, heated to 95° C. for 5 minutes, and loaded at 1 μg/lane on a 10–20% Tricine gel (Novex, San Diego, Calif.). […] For the experiments with recombinant αB-crystallin, aliquots of the protein solutions were mixed with sample running buffer containing NuPAGE sample buffer (Novex, San Diego, Calif.) and 10% β-mercaptoethanol, heated to 95° C. for 5 minutes, spun briefly, then loaded on a NuPAGE 4–12% Bis-Tris polyacrylamide gel at 375 ng/lane and electrophoresed with denaturing 3-(N-morpholino)propanesulfonic acid (MOPS)-SDS running buffer according to the manufacturer's recommendations.
To exclude the effects of other lens proteins on the observed findings in FIG. 5, these interactions with purified recombinant human αB-crystallin were examined.

Assay [5] in a line: Metal reduction assay, Cu(II) to Cu(I) (BC/BCA indicator). The format is biochemical. Conditions: chelator 250 μM. Here is the method:
Metal Reduction Assays—Assays were performed using a 96-well microtiter plate (Costar, Mass.). Test compounds from the kynurenine pathway (10 μM) or, as a positive control, ascorbic acid (ASC, 10 μM) were co-incubated with either Fe(III)-citrate (25 μM) and the Fe(II) indicator bathophenanthroline disulfonic acid (BP, 250 μM), or Cu(II)-glycine (25 μM) and the Cu(I) indicator bathocuproine disulfonic acid (BC) or bicinchoninic acid (BCA, 250 μM). Incubations were conducted in PBS, pH 7.4, at 37° C. in the dark for one hour. Absorbencies were then measured using a plate reader (SPECTRAmax Plus, Molecular Devices, CA) at the appropriate wavelengths: Fe(II)-BP complex at 535 nm (the known molar absorption coefficient, M535,=22140 M^−1 cm^−1), Cu(I)-BC complex at 483 nm, M483=12250 M^−1cm^−1), or Cu(I)-BCA complex at 562 nm, M562=7700 M^−1cm^−1). In control samples, absorbance from the metal ion and indicator in the absence of test compound and the absorbance of test compound in the presence of metal ions, but in the absence of indicator, were determined. The absorbencies from these controls were deducted from those obtained in the presence of the test compound, metal and indicator to yield the net absorbance (ΔA). Fe(II) or Cu(I) concentrations (μM) were calculated according to the formula: C(μM)=ΔA*10^6/Mλ.
The compounds comprising the kynurenine pathway (FIG. 1) were assayed for their ability to reduce […] and Cu(II) (FIG. 2A). […] Values represent the mean±SD for three independent measurements.

Assay [6] is described as follows: Metal reduction capacity of tanned calf lens α-crystallin, Cu(II). It counts as biochemical. Conditions: α-crystallin preparation 100 μg/ml, Cu(II)-glycine 25 μM, one hour 37° C. The procedure: Studies of Tanned Calf Lens Crystalin in Assay of Crystallin Protein for Metal Reduction Capacity—α-Crystallin (10 mg/ml) from calf lens was modified by reaction with 3-HK (100 μM), 3-HAA (100 μM), or ASC (100 μM) in PBS, ph 7.4, for 12 hours at 4° C. in the dark. Control samples were incubated with ascorbic acid (100 μM) or without added reductant. The tanning incubation solutions also contained triethylenetetramine (TETA, 200 μM) to prevent cross-linking of the protein. After incubation, free reductant was removed from the tanned α-crystallin preparations by exhaustive dialysis at 4EC in the dark utilizing PBS, pH 7.4, containing CHELEX™ 100 chelating ion exchange resin (BioRad, Hercules, Calif.). The various modified α-crystallin preparations (100 μg/ml) were co-incubated with either Cu(II)-glycine glycine (25 μM) or Fe(III)-citrate (25 μM) for one hour at 37° C. and assayed for metal reduction capacity using the BC and BP spectrophotometric assay as detailed above. Incubated and dialyzed α-crystallin (100 μg/ml) and untreated α-crystallin (100 μg/ml) preparations were used for procedural control.
3-HK: α-crystallin reduced nearly 100% of the available Cu(II) and approximately 20% of the available Fe(III). 3-HAA: α-crystallin reduced approximately 65% of the available Cu(II).

Residue numbers refer to the chain shown, from its start.

Regarding `Nc1ccccc1C(=O)O` [ANA, anthranilic acid], in assay [1] (test compound 10 μM, Cu(II)-glycine 1 μM), the “effect of Cu(II) on superoxide generation” value was “did not promote”. The superoxide production result in assay [1] (test compound 10 μM, ambient oxygen, dark, 60 minutes) is on record as “negligible”. In assay [2], the “Cu(II) reduction wave in presence of metabolite” value was “largely unaffected”. The hydrogen peroxide generated result in assay [3] (ambient gas conditions, CHELEX-treated PBS, FIG. 4C) was “approx. 0.3 μM”. In the case of `C[S+](C)[O-]` [DMSO, dimethyl sulfoxide], in assay [4], the “inhibition of αB-crystallin cross-linking by 3-HK or 3-HAA and Cu(II)” value (from here on “inhibition”) is given as “did not inhibit”. As to `O=C(O)CN(CCN(CC(=O)O)CC(=O)O)CCN(CC(=O)O)CC(=O)O` [DTPA, diethylenetriaminepentaacetic acid, reference compound], the “effect of chelator on metal reduction by 3-HK, 3-HAA and XA” value in assay [5] is reported as “abolished”.

Turning to `OC[C@@H](O)[C@@H](O)[C@H](O)[C@H](O)CO` [mannitol], in assay [4], the “inhibition” value was “did not inhibit”.

Regarding `O=C(O)c1ccccc1O` [salicylate], the “inhibition” value in assay [4] is listed as “did not inhibit”. Turning to catalase [reference compound], the “inhibition” value in assay [4] is “neither catalase nor superoxide dismutase were capable of inhibiting”. Besides, in assay [3] (Cu(II) 1 μM, catalase 1000 U/ml or TETA 200 μM), the “effect on hydrogen peroxide generation by 3-HK or 3-HAA” value is listed as “abolished”. With “superoxide dismutase [reference compound]”, in assay [4], the “inhibition” value is listed as “neither catalase nor superoxide dismutase were capable of inhibiting”. Also, in assay [1] (superoxide dismutase 1000 U/ml), the “effect on superoxide production by 3-HAA” value was “removed”.

B1: 3-HAA: α-crystallin: calf lens α-crystallin modified (tanned) by reaction with 3-HAA, free metabolite removed by dialysis (protein, UniProt P02470 1-173; P02510 1-175, looked up)
Alpha-crystallin A chain: MDIAIQHPWFKRTLGPFYPSRLFDQFFGEGLFEYDLLPFLSSTISPYYRQSLFRTVLDSGISEVRSDRDKFVIFLDVKHFSPEDLTVKVQEDFVEIHGKHNERQDDHGYISREFHRRYRLPSNVDQSALSCSLSADGMLTFSGPKIPSGVDAGHSERAIPVSREEKPSSAPSS
Alpha-crystallin B chain: T1 sequence (P02511 1-175) with T40A, F61I, T132A, V152A
modifications: modified with 3-hydroxyanthranilic acid
notes: calf lens α-crystallin modified (tanned) by reaction with 3-HAA, free metabolite removed by dialysis
Take B1: the “reduction of available Cu(II)” value in assay [6] is on record as “approximately 65%”.

Values taken from US7166472B2, “Method for the identification of agents that inhibit or promote cataracts and uses thereof” (The General Hospital Corporation, priority 2000, dated 2007).
